This passage reports mutagenic call results from PubChem BioAssay AID1259407 (Chemical Carcinogenesis Research Information System (CCRIS), 2018).

This data set has as its system CCRIS mutagenicity, Ames/micronucleus/aberration tests. In words: CCRIS mutagenicity studies.
Where [1] appears, read: Test System: AMES SALMONELLA TYPHIMURIUM, Strain/Indicator: TA100, Metabolic Activation: NONE, Method: STANDARD PLATE.
Where [2] appears, read: Test System: AMES SALMONELLA TYPHIMURIUM, Strain/Indicator: TA98, Metabolic Activation: NONE, Method: STANDARD PLATE.

Calls of active or inactive are those of the source. The rule behind the calls is not given here.

For `CC(C)=CCl`, the mutagenic call is, setting by setting: (End Point: IN VITRO CHROMOSOMAL ABERRATIONS, Test System: CHO CELLS, Metabolic Activation: NONE) “inactive; negative”; (End Point: IN VITRO CHROMOSOMAL ABERRATIONS, Test System: CHO CELLS, Metabolic Activation: RAT, LIVER, S-9, AROCLOR 1254) “inactive; negative”; (Test System: AMES SALMONELLA TYPHIMURIUM, Strain/Indicator: TA98, Metabolic Activation: HAMSTER, LIVER, S-9, AROCLOR 1254 (10%), Method: PREINCUBATION) “inactive; negative”; (Test System: AMES SALMONELLA TYPHIMURIUM, Strain/Indicator: TA98, Metabolic Activation: NONE, Method: PREINCUBATION) “inactive; negative”; (Test System: AMES SALMONELLA TYPHIMURIUM, Strain/Indicator: TA98, Metabolic Activation: RAT, LIVER, S-9, AROCLOR 1254 (10%), Method: PREINCUBATION) “inactive; negative”; (Test System: AMES SALMONELLA TYPHIMURIUM, Strain/Indicator: TA100, Metabolic Activation: HAMSTER, LIVER, S-9, AROCLOR 1254 (10%), Method: PREINCUBATION) “inactive; negative”. The mutagenic call is, setting by setting: (Test System: AMES SALMONELLA TYPHIMURIUM, Strain/Indicator: TA100, Metabolic Activation: NONE, Method: PREINCUBATION) “inactive; negative”; (Test System: AMES SALMONELLA TYPHIMURIUM, Strain/Indicator: TA100, Metabolic Activation: RAT, LIVER, S-9, AROCLOR 1254 (10%), Method: PREINCUBATION) “inactive; negative”; (Test System: AMES SALMONELLA TYPHIMURIUM, Strain/Indicator: TA102, Metabolic Activation: RAT, LIVER, S-9, PHENOBARBITAL AND 5,6-BENZOFLAVONE, Method: STANDARD PLATE) “inactive; negative”; (Test System: AMES SALMONELLA TYPHIMURIUM, Strain/Indicator: TA1535, Metabolic Activation: HAMSTER, LIVER, S-9, AROCLOR 1254 (10%), Method: PREINCUBATION) “inactive; negative”; (Test System: AMES SALMONELLA TYPHIMURIUM, Strain/Indicator: TA1535, Metabolic Activation: NONE, Method: PREINCUBATION) “inactive; negative”; (Test System: AMES SALMONELLA TYPHIMURIUM, Strain/Indicator: TA1535, Metabolic Activation: RAT, LIVER, S-9, AROCLOR 1254 (10%), Method: PREINCUBATION) “inactive; negative”. The mutagenic call is “inactive; negative” (Test System: AMES SALMONELLA TYPHIMURIUM, Strain/Indicator: TA1537, Metabolic Activation: HAMSTER, LIVER, S-9, AROCLOR 1254 (10%), Method: PREINCUBATION); “inactive; negative” (Test System: AMES SALMONELLA TYPHIMURIUM, Strain/Indicator: TA1537, Metabolic Activation: NONE, Method: PREINCUBATION); “inactive; negative” (Test System: AMES SALMONELLA TYPHIMURIUM, Strain/Indicator: TA1537, Metabolic Activation: RAT, LIVER, S-9, AROCLOR 1254 (10%), Method: PREINCUBATION); “inactive; negative” (Test System: AMES SALMONELLA TYPHIMURIUM, Strain/Indicator: TA2638, Metabolic Activation: RAT, LIVER, S-9, PHENOBARBITAL AND 5,6-BENZOFLAVONE, Method: STANDARD PLATE); “inactive; negative” (Test System: E. COLI, Strain/Indicator: WP2 (PKM101), Metabolic Activation: RAT, LIVER, S-9, PHENOBARBITAL AND 5,6-BENZOFLAVONE, Method: STANDARD PLATE); “inactive; negative” (Test System: E. COLI, Strain/Indicator: WP2 UVRA (PKM101), Metabolic Activation: RAT, LIVER, S-9, PHENOBARBITAL AND 5,6-BENZOFLAVONE, Method: STANDARD PLATE). In addition, the mutagenic call is, setting by setting: (Test System: MOUSE LYMPHOMA, Strain/Indicator: L5178Y (TK+/TK-), Metabolic Activation: RAT, LIVER, S-9, AROCLOR 1254, Method: SUSPENSION/PLATE) “active; positive. reevaluation of results: positive”; (Test System: Mouse lymphoma, Strain/Indicator: L5178Y (tk+/tk-), Metabolic Activation: None, Method: Suspension/plate) “inactive; negative”.

As for `CC(C)(C)C(Br)C(=O)Nc1ccccc1` (stereo not given), the mutagenic call was “inactive; negative” (Test System: AMES SALMONELLA TYPHIMURIUM, Strain/Indicator: TA100, Metabolic Activation: MOUSE, LIVER, S-9, AROCLOR 1254, Method: STANDARD PLATE) and “inactive; negative” under setting [1].

In the case of `O=[N+]([O-])c1ccc2c(c1)CCc1ccccc1-2`, the mutagenic call by setting is: (Test System: AMES SALMONELLA TYPHIMURIUM, Strain/Indicator: TA98(1,8-DNP6), Metabolic Activation: NONE, Method: STANDARD PLATE) “active; positive”; (Test System: AMES SALMONELLA TYPHIMURIUM, Strain/Indicator: TA98(NR), Metabolic Activation: NONE, Method: STANDARD PLATE) “active; positive”; under setting [2], “active; positive”.

As for `CCNCC#CC(C)(C)OC(=O)C(O)(c1ccccc1)C1CCCCC1` (stereo not given), the mutagenic call runs as follows: under setting [2], “inactive; negative”; (Test System: AMES SALMONELLA TYPHIMURIUM, Strain/Indicator: TA98, Metabolic Activation: RAT, LIVER, S-9, PHENOBARBITAL AND 5,6-BENZOFLAVONE, Method: STANDARD PLATE) “inactive; negative”; under setting [1], “inactive; negative”; (Test System: AMES SALMONELLA TYPHIMURIUM, Strain/Indicator: TA100, Metabolic Activation: RAT, LIVER, S-9, PHENOBARBITAL AND 5,6-BENZOFLAVONE, Method: STANDARD PLATE) “inactive; negative”; (Test System: AMES SALMONELLA TYPHIMURIUM, Strain/Indicator: TA1535, Metabolic Activation: NONE, Method: STANDARD PLATE) “inactive; negative”; (Test System: AMES SALMONELLA TYPHIMURIUM, Strain/Indicator: TA1535, Metabolic Activation: RAT, LIVER, S-9, PHENOBARBITAL AND 5,6-BENZOFLAVONE, Method: STANDARD PLATE) “inactive; negative”. The mutagenic call reads like this: (Test System: AMES SALMONELLA TYPHIMURIUM, Strain/Indicator: TA1537, Metabolic Activation: NONE, Method: STANDARD PLATE) “inactive; negative”; (Test System: AMES SALMONELLA TYPHIMURIUM, Strain/Indicator: TA1537, Metabolic Activation: RAT, LIVER, S-9, PHENOBARBITAL AND 5,6-BENZOFLAVONE, Method: STANDARD PLATE) “inactive; negative”; (Test System: E. COLI, Strain/Indicator: WP2 UVRA, Metabolic Activation: NONE, Method: STANDARD PLATE) “inactive; negative”; (Test System: E. COLI, Strain/Indicator: WP2 UVRA, Metabolic Activation: RAT, LIVER, S-9, PHENOBARBITAL AND 5,6-BENZOFLAVONE, Method: STANDARD PLATE) “inactive; negative”.
